Experiments:
human C3aR (HMDMs) = assay: inhibition of ligand-induced ERK1/2 phosphorylation by SB290157 in HMDMs; type: cell-based; conditions: 5 µM SB290157, 30 min pre-treatment
From the text: HMDMs were generated and cultured as previously described ([20]), with experiments approved by The University of Queensland Human Research Ethics Committee. Briefly, human buffy coat blood from anonymous healthy donors was obtained through the Australian Red Cross Blood Service (Brisbane, Australia). Human CD14+ monocytes were isolated from blood using Lymphoprep density centrifugation (STEMCELL, Melbourne, Australia) followed by CD14+ MACS magnetic bead separation (Miltenyi Biotec, Sydney, Australia). The isolated monocytes were differentiated for 7 days in Iscove’s Modified Dulbecco’s Medium supplemented with 10% FBS, 100 IU/ml penicillin, 100 μg/ml streptomycin and 15 ng/ml recombinant human macrophage colony stimulating factor (BioLegend, San Diego, USA) on 10 mm square dishes (Bio-strategy, Brisbane, Australia). Non-adherent cells were removed by washing with DPBS, and the adherent differentiated HMDMs were harvested by gentle scraping.
Ligand-induced ERK1/2 phosphorylation was assessed using the AlphaLISA Surefire Ultra p-ERK1/2 (Thr202/Tyr204) kit (PerkinElmer, Melbourne, Australia) following the manufacturer’s protocol as previously described ([18], [20], [22]). Briefly, CHO-K1, CHO-C3aR, CHO-C5aR1, HMDMs (50,000/well) or BMDMs (90,000/well) were seeded in tissue culture-treated 96-well plates (Corning, Corning, USA) for 24 h and serum-starved overnight. All ligand dilutions were prepared in serum-free medium (SFM) containing 0.1% BSA. For inhibition assays, cells were pre-treated with the following ligands (5 µM SB290157, or respective concentrations of hC3a, mC3a, hC5a, hTLQP-21, and mTLQP-21) or the solvent-only control for 30 min before agonist (hC3a, hTLQP-21 and mTLQP-21) addition. The concentration and identity of the ligands are described in detail in the figure legends. For stimulation, cells were treated with ligands at the indicated concentrations for 10 min at RT and then immediately lysed using AlphaLISA lysis buffer on a microplate shaker (450 rpm, 10 min). For the detection of phospho-ERK1/2 content, cell lysate (5 μL/well) was transferred to a 384-well ProxiPlate (PerkinElmer, Melbourne, Australia) and added to the donor and acceptor reaction mix (2.5 μL/well, respectively), followed by a 2-h incubation at RT in the dark. On a Tecan Spark 20M (Tecan, Männedorf, Switzerland), the plate was measured using standard AlphaLISA settings.
Figure 3 Agonistic and antagonistic activities of hTLQP-21 and mTLQP-21 in human monocyte-derived macrophages. […] The phospho-ERK1/2 content in the cell lysate was measured and normalised to the maximum hC3a/hC5a-induced levels before being combined. […]

C3aR = conditions: at the concentration used (5 µM); ref [20]; cited from earlier work
From the text: (§1) However, only mouse TLQP-21 was used in these studies and to the best of our knowledge, no data is available for the potential activity of TLQP-21 in human immune cells. […] However, by contrast to hC3a, the agonistic activity of TLQP-21 peptides was markedly weaker in HMDMs relative to CHO-C3aR, with EC50 values in the high micromolar ...

C5aR1 = conditions: at the concentration used (5 µM); ref [20]; cited from earlier work
From the text: as §1

## NC(N)=NCCC[C@H](NC(=O)COCC(c1ccccc1)c1ccccc1)C(=O)O [SB290157]
Human C3aR (HMDMs); HMDMs, n = 4 donors
  inhibition of hTLQP-21 and mTLQP-21 induced ERK signalling: 70-90%
Human C3aR (HMDMs); agonist C3a, HMDMs
  remaining C3a-induced ERK signalling with SB290157: less than 20 % of the untreated level
Human C3aR (HMDMs); agonist hTLQP-21
  remaining hTLQP-21 induced ERK activation with SB290157: 29 % of the control level
Human C3aR (HMDMs); agonist mTLQP-21
  remaining mTLQP-21 induced ERK activation with SB290157: 16 % of the control level
C3aR
  agonist activity of SB290157 on C3aR: does not exhibit any detectable agonist activity
C5aR1
  agonist activity of SB290157 on C5aR1: does not exhibit any detectable agonist activity
